The record followed here is patent publication US12649750B2, “Macrocyclic compounds, compositions, and methods of using thereof” (Sionna Therapeutics Inc., priority 2022, dated 2026).

One experiment concerns the target T1, NBD1 (Homo sapiens, UniProt P13569).
T1 construct: Purified recombinant NBD1 was produced using previously described methods; made in house
Nature of the experiment: Aggregation analysis using differential static light scattering (DSLS), thermal stability of NBD1 (ΔTagg). In kind it is binding. Conditions: ΔTagg versus DMSO control, NBD1 0.2 mg/ml. The method in brief: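 Differential static light scattering read from 25° C. to 70° C. every 0.5° C., ramp 1° C./min, on recombinant NBD1 (0.2 mg/ml; Tris/NaCl/MgCl2 buffer with 2 mM ATP, 2 mM DTT, pH 7.6, 1% glycerol) plus compound. Reported ΔTagg subtracts averaged DMSO Tagg from inflection-point Tagg; categories A ≤5, B >5-10, C >10-25° C.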

Another experiment deals with T2, CFTR (Homo sapiens, UniProt P13569, DEL508-508).
T2 construct: Primary human bronchial epithelial cells from a ΔF508 homozygous CF donor; host or cells: primary human bronchial epithelial cells (CF-HBE), ΔF508 homozygous donor
Nature of the experiment: TECC24 AUC fold over DMSO @10 μM, CFTR-mediated transepithelial chloride transport in CF-HBE cells. In kind it is cell-based. Conditions: test agent AUC divided by DMSO vehicle AUC, primary CF-HBE cells, ΔF508 homozygous donor, 48 hours incubation. The method in brief: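 ΔF508-homozygous primary bronchial epithelial cells incubated 48 h at 36.5° C with compound (10 μM) in IL-13-containing medium, then TECC24 current-clamp recording in pH 7.4 Hepes saline with benzamil 10 μM, forskolin 10 μM, then CFTR inhibitor-172 20 μM. Equivalent Cl− current AUC between forskolin and inhibitor, expressed as fold over DMSO.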

The structures appear in SMILES notation.

T1 sequence (P13569 423-646 limits assumed): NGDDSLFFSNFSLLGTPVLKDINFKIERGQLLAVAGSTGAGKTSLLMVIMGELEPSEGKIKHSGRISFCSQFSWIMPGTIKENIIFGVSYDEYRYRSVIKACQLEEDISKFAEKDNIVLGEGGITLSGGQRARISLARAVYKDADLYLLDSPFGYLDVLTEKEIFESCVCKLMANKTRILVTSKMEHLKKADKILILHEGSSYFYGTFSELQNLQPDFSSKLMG
T2 sequence (P13569 with tags, fused parts or gaps DEL508-508): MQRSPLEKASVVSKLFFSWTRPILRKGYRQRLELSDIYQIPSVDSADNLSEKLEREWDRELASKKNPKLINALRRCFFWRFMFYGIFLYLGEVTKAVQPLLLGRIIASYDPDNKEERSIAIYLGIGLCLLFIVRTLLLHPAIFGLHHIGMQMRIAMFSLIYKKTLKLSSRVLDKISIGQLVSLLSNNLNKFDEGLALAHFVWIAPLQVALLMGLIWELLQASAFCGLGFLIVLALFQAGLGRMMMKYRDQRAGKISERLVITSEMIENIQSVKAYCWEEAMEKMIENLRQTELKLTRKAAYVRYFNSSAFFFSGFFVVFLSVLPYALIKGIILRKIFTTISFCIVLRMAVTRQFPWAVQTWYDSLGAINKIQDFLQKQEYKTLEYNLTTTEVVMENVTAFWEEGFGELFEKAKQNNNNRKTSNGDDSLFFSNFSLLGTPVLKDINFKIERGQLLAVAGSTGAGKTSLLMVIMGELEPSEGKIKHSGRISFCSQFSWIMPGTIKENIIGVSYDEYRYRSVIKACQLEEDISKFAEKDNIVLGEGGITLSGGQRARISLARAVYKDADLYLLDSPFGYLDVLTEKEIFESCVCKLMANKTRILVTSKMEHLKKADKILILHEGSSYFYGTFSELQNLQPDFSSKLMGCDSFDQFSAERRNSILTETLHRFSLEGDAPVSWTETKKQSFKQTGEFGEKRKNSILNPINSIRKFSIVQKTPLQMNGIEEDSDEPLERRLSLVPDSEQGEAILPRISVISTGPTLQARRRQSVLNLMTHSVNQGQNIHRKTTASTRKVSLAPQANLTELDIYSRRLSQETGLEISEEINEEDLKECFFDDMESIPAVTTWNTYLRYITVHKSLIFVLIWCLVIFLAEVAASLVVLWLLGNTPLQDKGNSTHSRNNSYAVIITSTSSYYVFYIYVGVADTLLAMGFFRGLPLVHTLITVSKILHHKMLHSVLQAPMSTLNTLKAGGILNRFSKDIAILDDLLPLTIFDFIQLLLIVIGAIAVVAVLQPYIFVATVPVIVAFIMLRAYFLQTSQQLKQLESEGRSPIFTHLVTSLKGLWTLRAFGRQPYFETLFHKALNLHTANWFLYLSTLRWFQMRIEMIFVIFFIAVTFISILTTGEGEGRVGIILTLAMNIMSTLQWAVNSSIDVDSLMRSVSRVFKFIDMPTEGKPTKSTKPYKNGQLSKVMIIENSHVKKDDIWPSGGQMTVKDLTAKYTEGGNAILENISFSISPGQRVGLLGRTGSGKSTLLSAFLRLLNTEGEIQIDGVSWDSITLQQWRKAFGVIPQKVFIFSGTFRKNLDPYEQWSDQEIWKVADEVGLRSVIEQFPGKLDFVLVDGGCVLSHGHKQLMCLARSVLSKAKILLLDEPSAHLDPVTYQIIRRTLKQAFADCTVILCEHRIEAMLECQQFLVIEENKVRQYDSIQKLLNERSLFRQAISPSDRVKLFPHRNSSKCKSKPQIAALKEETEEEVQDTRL

`C[C@H](Cc1cccc([C@@]2(C)CCCC(C)(C)CS(=O)(=O)CCc3c(c(F)cc4[nH]ccc34)Oc3ccnc(c3)-c3nc2nn3C)c1)C(=O)O` [Compound 197, (2R)-3-[3-[(6R)-22-Fluoro-3,6,10,10-tetramethyl-12,12-dioxo-24-oxa-12λ6-thia-3,4,19,28,30-pentazapentacyclo[23.3.1.12,5.015,23.016,20]triaconta-1(29),2(30),4,15,17,20,22,25,27-nonaen-6-yl]phenyl]-2-methyl-propanoic Acid]: the “DSLS 3D (100 μM ΔT)” value on NBD1 is “C (a value greater than 10 °C and less than or equal to 25 °C is marked “C”)”. For the same compound, at CFTR, the “TECC (AUC, 10 μM)” value was “C (a value between 20 and 80 is marked “C”)”.

Consider `C[C@H](Cc1ccc(C2(C)CCCC(C)(C)CS(=O)(=O)CCc3c(c(F)cc4[nH]ccc34)Oc3ccc(F)c(c3)-c3nc2nn3C)s1)C(=O)O` (stereo partly drawn) [Compound 198, (2R)-3-[5-(22,28-difluoro-3,6,10,10-tetramethyl-12,12-dioxo-24-oxa-12λ6-thia-3,4,19,30-tetrazapentacyclo[23.3.1.12,5.015,23.016,20]triaconta-1(29),2(30),4,15,17,20,22,25,27-nonaen-6-yl)-2-thienyl]-2-methyl-propanoic Acid], for which the “DSLS 3D (100 μM ΔT)” value on NBD1 was “C (a value greater than 10 °C and less than or equal to 25 °C is marked “C”)”. Further, at CFTR, the “TECC (AUC, 10 μM)” value was “C (a value between 20 and 80 is marked “C”)”.

In the case of `Cn1nc2nc1-c1cc(ccc1F)Oc1c(F)cc3[nH]ccc3c1CCS(=O)(=O)CC(C)(C)CCCC2(C)c1cccc(CC2CCN(O)C2=O)c1` (stereo not shown) [Compound 199, 3-[[3-(22,28-Difluoro-3,6,10,10-tetramethyl-12,12-dioxo-24-oxa-12λ6-thia-3,4,19,30-tetrazapentacyclo[23.3.1.12,5.015,23.016,20]triaconta-1(29),2(30),4,15,17,20,22,25,27-nonaen-6-yl)phenyl]methyl]-1-hydroxy-pyrrolidin-2-one], the “DSLS 3D (100 μM ΔT)” value on NBD1 is “C (a value greater than 10 °C and less than or equal to 25 °C is marked “C”)”. On CFTR, the “TECC (AUC, 10 μM)” value is “C (a value between 20 and 80 is marked “C”)”.

Consider `C[C@H](Cc1cccc([C@@]2(C)CCCC(C)(C)CS(=O)(=O)CCc3c(c(F)c(F)c4[nH]ccc34)Oc3ccc(F)c(c3)-c3nc2nn3C)c1)C(=O)O` [Compound 200, (2R)-2-methyl-3-[3-[(6R)-21,22,28-trifluoro-3,6,10,10-tetramethyl-12,12-dioxo-24-oxa-12λ6-thia-3,4,19,30-tetrazapentacyclo[23.3.1.12,5.015,23.016,20]triaconta-1(29),2(30),4,15,17,20,22,25,27-nonaen-6-yl]phenyl]propanoic acid], for which the “DSLS 3D (100 μM ΔT)” value at NBD1 was “C (a value greater than 10 °C and less than or equal to 25 °C is marked “C”)”. Besides, on CFTR, the “TECC (AUC, 10 μM)” value is “C (a value between 20 and 80 is marked “C”)”.

As to `C[C@H](Cc1cccc([C@@]2(C)CCCC(C)(C)CS(=O)(=O)CCc3c(c(F)cc4[nH]ccc34)Oc3cncc(c3)-c3nc2nn3C)c1)C(=O)O` [Compound 202, (2R)-3-[3-[(6R)-22-fluoro-3,6,10,10-tetramethyl-12,12-dioxo-24-oxa-12λ6-thia-3,4,19,27,30-pentazapentacyclo[23.3.1.12,5.015,23.016,20]triaconta-1(29),2(30),4,15,17,20,22,25,27-nonaen-6-yl]phenyl]-2-methyl-propanoic Acid], at NBD1, the “DSLS 3D (100 μM ΔT)” value is “C (a value greater than 10 °C and less than or equal to 25 °C is marked “C”)”. For the same compound, the “TECC (AUC, 10 μM)” value at CFTR is “C (a value between 20 and 80 is marked “C”)”.
